Laboratory results reported in patent US8383637B2, “2-amino-quinazoline derivatives useful as inhibitors of β-secretase (BACE)” (Jansssen Pharmaceutica N.V., priority 2004, dated 2013).

Target: T1, β-secretase(BACE) (Homo sapiens, UniProt P56817)
T1 construct: purchased Panvera
Assay: BACE FS1% Inhibition Assay
Type: biochemical
Settings: FS1 substrate; for % Inhibition (FS) 0.3 μM / inhibition at 0.3 µM: 0.3 μM test compound; for % Inhibition (FS) 1 μM / inhibition at 1 µM: 1 μM test compound; for % Inhibition (FS) 3 μM / inhibition at 3 µM: 3 μM test compound; for inhibition at 0.3 µM: read-out: % Inhibition (FS) 0.3 μM; for inhibition at 1 µM: read-out: % Inhibition (FS) 1 μM; for inhibition at 3 µM: read-out: % Inhibition (FS) 3 μM
In short: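 Human BACE (4 μg/mL working solution) preincubated 20 min at room temperature with compound, then FS1 substrate (300 μg/mL working solution) added and incubated 1 h at room temperature. Percent inhibition calculated at each compound concentration against blank and vehicle controls.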

T1 sequence (P56817 46-501): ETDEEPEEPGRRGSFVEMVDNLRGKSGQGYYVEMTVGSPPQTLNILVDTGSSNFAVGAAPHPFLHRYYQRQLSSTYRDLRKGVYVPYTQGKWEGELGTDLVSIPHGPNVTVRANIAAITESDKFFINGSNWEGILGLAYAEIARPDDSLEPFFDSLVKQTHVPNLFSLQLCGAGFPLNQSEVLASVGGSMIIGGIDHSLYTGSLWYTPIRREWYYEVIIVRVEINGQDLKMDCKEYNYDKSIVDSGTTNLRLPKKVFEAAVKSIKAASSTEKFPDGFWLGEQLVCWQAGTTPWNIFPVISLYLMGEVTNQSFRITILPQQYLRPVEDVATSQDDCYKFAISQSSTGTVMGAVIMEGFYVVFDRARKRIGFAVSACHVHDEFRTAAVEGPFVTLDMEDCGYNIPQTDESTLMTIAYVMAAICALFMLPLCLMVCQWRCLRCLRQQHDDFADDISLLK

Row | % Inhibition (FS) 0.3 μM [%] | % Inhibition (FS) 1 μM [%] | % Inhibition (FS) 3 μM [%] | SMILES | further results
1 | 32 | 70 | 104 | NC1=Nc2ccc(-c3ccccc3)cc2CN1CCNC(=O)Cc1ccccc1 [Compound 595] | –
2 | <30 | <30 | <30 | CCCC=Cc1ccc2c(c1)CN(CCNC(=O)Cc1ccccc1)C(N)=N2 [Compound 596] | –
3 | <30 | <30 | 36 | CC(=O)c1cccc(-c2ccc3c(c2)CN(CCNC(=O)Cc2ccccc2)C(N)=N3)c1 [Compound 598] | –
4 | <30 | <30 | 65 | NC1=Nc2ccc(-c3cccc(CO)c3)cc2CN1CCNC(=O)Cc1ccccc1 [Compound 599] | –
5 | <30 | <30 | 41 | NC1=Nc2ccc(-c3cccc(C(F)(F)F)c3)cc2CN1CCNC(=O)Cc1ccccc1 [Compound 600] | –
6 | 101 | 114 | 122 | CCC[C@H](CNC(=O)CCC(C)C)N1Cc2cc(Oc3ccccc3)ccc2N=C1N [Compound 603] | –
7 | 94 | 116 | 123 | COc1ccccc1-c1ccc2c(c1)CN(Cc1cccc(C(=O)N(C)C3CCCCC3)c1)C(NC(C)=O)=N2 [Compound 607] | –
8 | <30 | 36 | <30 | NC1=Nc2ccc(Oc3ccccc3)cc2CN1C1CCCN(C(=O)C2CCCCC2)C1 (stereo not shown) [Compound 611] | –
9 | <30 | 34 | <30 | CCCC(CCC)C(=O)N1CCCC(N2Cc3cc(Oc4ccccc4)ccc3N=C2N)C1 (stereo not shown) [Compound 612] | –
10 | 36 | 31 | <30 | CC(C)CCC(=O)N1CCCC(N2Cc3cc(Oc4ccccc4)ccc3N=C2N)C1 (stereo not shown) [Compound 613] | –
11 | <30 | <30 | <30 | NC1=Nc2ccc(Oc3ccccc3)cc2CN1C(CNC(=O)C1CCCCC1)Cc1ccc(O)cc1 (stereo not shown) [Compound 614] | –
12 | <30 | <30 | <30 | CC(C)CCC(=O)NCC(Cc1ccc(O)cc1)N1Cc2cc(Oc3ccccc3)ccc2N=C1N (stereo not shown) [Compound 615] | –
13 | – | – | <30 | NC1=Nc2ccc(Oc3ccccc3)cc2CN1C(CNC(=O)C1CCCCC1)Cc1ccc(O)cc1 (stereo not shown) [Compound 616] | –
14 | <30 | <30 | 37 | COc1ccccc1-c1cc2c(cc1F)CN(CCC(=O)NC1C3CC4CC(C3)CC1C4)C(N)=N2 (stereo not shown) [Compound 620] | –
15 | <30 | – | – | NC1=Nc2ccc(-c3ccc(F)cc3)cc2CN1CCNC(=O)C1CCCCC1 [Compound 623] | % Inhibition (FS) 1 μM (1 µM): <30%; % Inhibition (FS) 3 μM (3 µM): 82%
16 | <30 | – | – | NC1=Nc2ccc(-c3ccc(F)cc3)cc2CN1CCNC(=O)C1CCCCC1 [Compound 624] | % Inhibition (FS) 1 μM (1 µM): 38%; % Inhibition (FS) 3 μM (3 µM): 78%

The next lines start with the molecule.

Row | SMILES | % Inhibition (FS) 0.3 μM [%] | % Inhibition (FS) 1 μM [%] | % Inhibition (FS) 3 μM [%] | further results
17 | NC1=Nc2ccc(-c3cncnc3)cc2CN1CCNC(=O)C1CCCCC1 [Compound 575] | <30 | <30 | <30 | –
18 | NC1=Nc2ccc(-c3ccncc3)cc2CN1CCNC(=O)C1CCCCC1 [Compound 576] | <30 | <30 | <30 | –
19 | CCCC=Cc1ccc2c(c1)CN(CCNC(=O)C1CCCCC1)C(N)=N2 [Compound 577] | <30 | <30 | <30 | –
20 | CCCC=Cc1ccc2c(c1)CN(CCNC(=O)CC1CCCC1)C(N)=N2 [Compound 580] | <30 | <30 | <30 | –
21 | CC(=O)c1cccc(-c2ccc3c(c2)CN(CCNC(=O)CC2CCCC2)C(N)=N3)c1 [Compound 582] | <30 | <30 | <30 | –
22 | NC1=Nc2ccc(-c3cccc(C(F)(F)F)c3)cc2CN1CCNC(=O)CC1CCCC1 [Compound 584] | <30 | <30 | 56 | –
23 | Cc1cc(C(=O)NCCN2Cc3cc(-c4ccccc4)ccc3N=C2N)c(C)o1 [Compound 586] | <30 | <30 | 59 | –
24 | CCCC=Cc1ccc2c(c1)CN(CCNC(=O)c1cc(C)oc1C)C(N)=N2 [Compound 587] | <30 | <30 | <30 | –
25 | CC(=O)c1cccc(-c2ccc3c(c2)CN(CCNC(=O)c2cc(C)oc2C)C(N)=N3)c1 [Compound 588] | <30 | <30 | <30 | –
26 | Cc1cc(C(=O)NCCN2Cc3cc(-c4cccc(CO)c4)ccc3N=C2N)c(C)o1 [Compound 589] | <30 | <30 | <30 | –
27 | Cc1cc(C(=O)NCCN2Cc3cc(-c4cccc(C(F)(F)F)c4)ccc3N=C2N)c(C)o1 [Compound 590] | <30 | <30 | <30 | –
28 | CC(=O)Nc1ccc(C(=O)NCCN2Cc3cc(-c4ccccc4)ccc3N=C2N)cc1 [Compound 591] | <30 | <30 | <30 | –
29 | CCCC=Cc1ccc2c(c1)CN(CCNC(=O)c1ccc(NC(C)=O)cc1)C(N)=N2 [Compound 592] | <30 | <30 | <30 | –
30 | CC(=O)Nc1ccc(C(=O)NCCN2Cc3cc(-c4cccc(CO)c4)ccc3N=C2N)cc1 [Compound 593] | <30 | <30 | <30 | –
31 | CC(=O)Nc1ccc(C(=O)NCCN2Cc3cc(-c4cccc(C(F)(F)F)c4)ccc3N=C2N)cc1 [Compound 594] | <30 | <30 | <30 | –
32 | CCCC(CNC(=O)C12CC3CC(CC(C3)C1)C2)N1Cc2cc(Oc3ccccc3)ccc2N=C1N (stereo not shown) [Compound 602] | – | – | – | % Inhibition (FS) 0.3 μM (0.3 µM): 78%; % Inhibition (FS) 1 μM (1 µM): 113%; % Inhibition (FS) 3 μM (3 µM): 121%
33 | NC1=Nc2ccc(Oc3ccccc3)cc2CN1C(Cc1ccccc1)c1ocnc1C(=O)NC1CCCCC1 (stereo not shown) [Compound 606, 5-[1-(2-Amino-6-phenoxy-4H-quinazolin-3-yl)-2-phenyl-ethyl]-oxazole-4-carboxylic acid cyclohexylamide] | – | – | – | inhibition at 0.3 µM: < 30%; inhibition at 1 µM: < 30%; inhibition at 3 µM: 56%
34 | COc1ccccc1-c1ccc2c(c1)N=C(N)N(CCC(=O)NC1C3CC4CC(C3)CC1C4)C2 (stereo not shown) [Compound 617, N-Adamantan-2-yl-3-[2-amino-7-(2-methoxy-phenyl)-4H-quinazolin-3-yl]-propionamide] | – | – | – | inhibition at 0.3 µM: < 30%; inhibition at 1 µM: 34%; inhibition at 3 µM: 41%
